We go through 6 compounds from PMC3608422 (Xenobiotica; the fate of foreign compounds in biological …, 2011).

One series addresses CB1Rs. The note with it: read-out: affinity for CB1Rs; ref Mechoulam et al. 1995; cited from earlier work.
The target in another series is CB2Rs. Conditions: read-out: affinity for CB2Rs; ref Mechoulam et al. 1995; cited from earlier work.
In the next series the target is mCB1Rs (Mus musculus, UniProt P47746). It counts as biochemical. Conditions: for effect on basal G-protein activity ([35S]GTPγS binding): 10 µM.
For series [1], the target named is mouse brain CB1Rs (mCB1Rs) (Mus musculus, UniProt P47746). Description: biochemical. In kind it is binding. Conditions: for Selectivity: mCB1 versus hCB2 binding; for hCB2/mCB1 (Ki ratio): ratio of Ki hCB2 to Ki mCB1.
Series [2] deals with human CB2Rs (hCB2Rs) stably expressed in CHO cells (Homo sapiens, UniProt P34972). Description: biochemical. In kind it is binding.
Setting [3] is: co-administration with 10 µM of the compound.
Where [4] appears, read: co-administration with 30 µM of the compound.

Structures are written as SMILES. Where two headings read alike, the source gives them in different places.

mCB1Rs, sequence (P47746 whole entry): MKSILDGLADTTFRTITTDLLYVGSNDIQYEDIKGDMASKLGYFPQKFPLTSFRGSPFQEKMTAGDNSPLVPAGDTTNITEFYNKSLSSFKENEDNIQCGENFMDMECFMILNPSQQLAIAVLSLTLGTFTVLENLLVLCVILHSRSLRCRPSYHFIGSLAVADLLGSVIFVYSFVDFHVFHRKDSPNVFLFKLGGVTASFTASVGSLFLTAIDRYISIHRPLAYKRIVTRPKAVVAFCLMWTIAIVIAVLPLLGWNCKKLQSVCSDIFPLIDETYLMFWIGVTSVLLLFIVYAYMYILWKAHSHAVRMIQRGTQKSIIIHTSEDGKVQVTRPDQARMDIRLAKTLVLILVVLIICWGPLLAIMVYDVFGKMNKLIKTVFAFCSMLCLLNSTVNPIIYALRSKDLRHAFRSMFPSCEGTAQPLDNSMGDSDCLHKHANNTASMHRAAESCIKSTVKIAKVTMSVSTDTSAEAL
mouse brain CB1Rs (mCB1Rs), sequence (P47746 whole entry): as above
human CB2Rs (hCB2Rs) stably expressed in CHO cells, sequence (P34972 whole entry): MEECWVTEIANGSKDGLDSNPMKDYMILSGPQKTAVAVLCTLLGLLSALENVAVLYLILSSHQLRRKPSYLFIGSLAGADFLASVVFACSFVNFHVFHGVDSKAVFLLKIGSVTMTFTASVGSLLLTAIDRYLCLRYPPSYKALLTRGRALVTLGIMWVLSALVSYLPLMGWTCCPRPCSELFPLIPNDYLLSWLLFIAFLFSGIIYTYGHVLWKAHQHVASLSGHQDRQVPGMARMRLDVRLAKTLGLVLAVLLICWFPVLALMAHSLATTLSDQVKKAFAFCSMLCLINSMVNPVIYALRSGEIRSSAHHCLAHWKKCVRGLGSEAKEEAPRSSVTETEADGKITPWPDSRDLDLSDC

Turning to `CCCCC/C=C\C/C=C\C/C=C\C/C=C\CCCC(=O)OC(CO)CO` [2-arachidonoylglycerol], the Ki at CB1Rs was approximately 0.5 µM; on CB2Rs, approximately 1.5 µM.

For the compound `CC1=CC[C@@H]2[C@@H](C1)c1c(O)cc(CC#CCCCNS(C)(=O)=O)cc1OC2(C)C` [O-2050, reference compound], the “effect on G-protein activity ([35S]GTPγS binding)” value at mCB1Rs (mouse brain membranes, 1 µM) is on record as “produced no effect”.

`CC(C)C=Cc1c(O)cc(/C=C/c2ccc(O)c(O)c2)cc1O` [tA1, trans-4-(3-methyl-1-butenyl)-3,5,3′,4′-tetrahydroxystilbene]: in the series on UGT1A1, the “glucuronidation by UGT1A1” value is “no visible glucuronidation”. On mCB1Rs (setting [3]), the “ED50 of CB1R agonist CP-55,940 to activate G-proteins on co-administration” value came to 0.028 µM, the “fold increase (shift-to-the-right) in ED50 of CP-55,940” value was found to be 7 fold and the “maximal response produced by CP-55,940 on co-administration” value was found to be 0.22 ± 0.04 pmol/mg protein. Besides, the “attenuation by O-2050 of the reduction of basal G-protein activity” value on mCB1Rs (compound 10 µM co-incubated with neutral CB1R antagonist O-2050 1 µM) was “did not significantly attenuate”. In addition, the “effect on basal G-protein activity ([35S]GTPγS binding)” value (from here on “effect on basal G-protein activity”) on mCB1Rs (mouse brain membranes) is recorded as “markedly reduce”. The “concentration at which substrate inhibition is seen” value in the series with UGT1A9 is given as more than 500 µM. Besides, in series [1], the Ki amounted to 5.6 ± 0.4 µM, the Selectivity entry is given as “Non-selective” and the “hCB2/mCB1 (Ki ratio)” value is recorded as 2.3. In series [2], this compound displayed a Ki of 12.6 ± 1.7 µM.

For `CC(C)C=Cc1c(O)cc(/C=C/c2ccc(O)cc2)cc1O` [tA3, trans-4-(3-methyl-1-butenyl)-3,5,4′-trihydroxystilbene], on mCB1Rs (setting [4]), the “ED50 of CB1R agonist CP-55,940 to activate G-proteins on co-administration” value is 0.127 µM and the “fold increase (shift-to-the-right) in ED50 of CP-55,940” value stood at 30 fold. In addition, the “effect on basal G-protein activity” value on mCB1Rs (mouse brain membranes) was “have little effect”. In series [1], the Ki turned out to be 17.5 ± 3.4 µM, the Selectivity result is “Non-selective” and the “hCB2/mCB1 (Ki ratio)” value worked out at 0.6. This compound also displayed a Ki in series [2] of 11.3 ± 0.6 µM.

`Oc1cc(O)cc(/C=C/c2ccc(O)c(O)c2)c1` [tPice, trans 3,5,3′,4′-tetrahydroxystilbene, reference compound]: the “effect on basal G-protein activity” value on mCB1Rs (mouse brain membranes) is recorded as “markedly reduce”. In series [1], the Ki is 11.7 ± 1 µM, the Selectivity entry is listed as “CB1” and the “hCB2/mCB1 (Ki ratio)” value is given as 9.7. The compound also returned a Ki in series [2] of 114 ± 7.8 µM.

`Oc1ccc(/C=C/c2cc(O)cc(O)c2)cc1` [tRes, trans-3,5,4′-trihydroxystilbene, reference compound] showed a Ki in series [1] of 14.3 ± 1.6 µM.
